Key:
Experiment in all cases: KinaseProfiler off-target kinase profiling
Format in all cases: biochemical
Conditions in all cases: 10 μM, ATP near Km
AKT1 = AKT1 (Homo sapiens (Human), UniProt P31749)
Summary of the method: (§1)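 Duplicate measurements were taken for compound at 10 μM with ATP near each kinase's Km. Values represent mean percent of control.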

AMPK(A1/B1/G1) = AMPK(A1/B1/G1) (Homo sapiens (Human), UniProt Q13131)
Summary of the method: as §1

Abl2 = Abl2 (Homo sapiens (Human), UniProt P42684)
Summary of the method: as §1

Axl = Axl (Homo sapiens (Human), UniProt P30530)
Summary of the method: as §1

CAMK1 = CAMK1 (Homo sapiens (Human), UniProt Q14012)
Summary of the method: as §1

CDK3/cyclinE = CDK3/cyclinE (Homo sapiens (Human), UniProt Q00526)
Summary of the method: as §1

CHK2 = CHK2 (Homo sapiens (Human), UniProt O96017)
Summary of the method: as §1

CK1gamma2 = CK1gamma2 (Homo sapiens (Human), UniProt P78368)
Summary of the method: as §1

DAPK2 = DAPK2 (Homo sapiens (Human), UniProt Q9UIK4)
Summary of the method: as §1

DAPK3 = DAPK3 (Homo sapiens (Human), UniProt O43293)
Summary of the method: as §1

EGFR = EGFR (Homo sapiens (Human), UniProt P00533)
Summary of the method: as §1

ERK2 = ERK2 (Homo sapiens (Human), UniProt P28482)
Summary of the method: as §1

EphA2 = EphA2 (Homo sapiens (Human), UniProt P29317)
Summary of the method: as §1

EphA8 = EphA8 (Homo sapiens (Human), UniProt P29322)
Summary of the method: as §1

EphB1 = EphB1 (Homo sapiens (Human), UniProt P54762)
Summary of the method: as §1

EphB4 = EphB4 (Homo sapiens (Human), UniProt P54760)
Summary of the method: as §1

Flt4 = Flt4 (Homo sapiens (Human), UniProt P35916)
Sequence of Flt4 (P35916 25-1363): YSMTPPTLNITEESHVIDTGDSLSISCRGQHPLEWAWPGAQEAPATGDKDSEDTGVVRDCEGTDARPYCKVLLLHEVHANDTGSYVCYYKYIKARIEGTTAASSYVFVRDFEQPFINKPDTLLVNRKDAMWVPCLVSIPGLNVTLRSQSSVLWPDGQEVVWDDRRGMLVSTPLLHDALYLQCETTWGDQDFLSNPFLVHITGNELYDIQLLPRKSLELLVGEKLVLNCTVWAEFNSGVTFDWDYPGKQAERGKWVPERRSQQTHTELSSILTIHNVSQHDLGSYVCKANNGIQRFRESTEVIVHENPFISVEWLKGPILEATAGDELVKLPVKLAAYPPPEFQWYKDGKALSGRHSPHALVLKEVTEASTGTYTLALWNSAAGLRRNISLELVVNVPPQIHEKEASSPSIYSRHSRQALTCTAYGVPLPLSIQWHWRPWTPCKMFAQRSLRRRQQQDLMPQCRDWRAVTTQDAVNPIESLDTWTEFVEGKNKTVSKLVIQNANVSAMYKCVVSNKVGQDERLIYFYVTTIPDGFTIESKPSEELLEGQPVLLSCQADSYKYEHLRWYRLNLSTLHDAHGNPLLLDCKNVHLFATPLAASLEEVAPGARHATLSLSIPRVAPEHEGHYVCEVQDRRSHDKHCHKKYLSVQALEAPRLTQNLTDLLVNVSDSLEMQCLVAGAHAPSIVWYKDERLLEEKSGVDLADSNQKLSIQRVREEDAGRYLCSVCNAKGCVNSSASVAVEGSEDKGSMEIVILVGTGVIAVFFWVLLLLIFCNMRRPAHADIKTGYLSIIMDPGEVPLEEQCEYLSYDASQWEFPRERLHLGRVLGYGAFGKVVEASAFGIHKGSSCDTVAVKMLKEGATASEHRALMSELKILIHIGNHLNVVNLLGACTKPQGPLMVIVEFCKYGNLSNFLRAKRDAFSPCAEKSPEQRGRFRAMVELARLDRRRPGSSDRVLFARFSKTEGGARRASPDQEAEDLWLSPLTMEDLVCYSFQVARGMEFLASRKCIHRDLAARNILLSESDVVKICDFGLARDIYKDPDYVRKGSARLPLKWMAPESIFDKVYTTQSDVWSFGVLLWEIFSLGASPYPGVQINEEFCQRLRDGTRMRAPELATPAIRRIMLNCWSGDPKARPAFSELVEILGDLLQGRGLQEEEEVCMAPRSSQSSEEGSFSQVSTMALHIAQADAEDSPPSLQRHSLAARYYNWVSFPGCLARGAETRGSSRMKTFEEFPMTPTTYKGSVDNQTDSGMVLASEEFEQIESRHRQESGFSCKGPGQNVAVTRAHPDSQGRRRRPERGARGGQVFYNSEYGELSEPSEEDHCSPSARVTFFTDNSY
Summary of the method: as §1

Fms = Fms (Homo sapiens (Human), UniProt P07333)
Summary of the method: as §1

GRK7 = GRK7 (Homo sapiens (Human), UniProt Q8WTQ7)
Summary of the method: as §1

IR = IR (Homo sapiens (Human), UniProt P06213)
Summary of the method: as §1

IR Activated = IR Activated (Homo sapiens (Human), UniProt P06213)
Summary of the method: as §1

IRAK4 = IRAK4 (Homo sapiens (Human), UniProt Q9NWZ3)
Sequence of IRAK4 (Q9NWZ3 whole entry): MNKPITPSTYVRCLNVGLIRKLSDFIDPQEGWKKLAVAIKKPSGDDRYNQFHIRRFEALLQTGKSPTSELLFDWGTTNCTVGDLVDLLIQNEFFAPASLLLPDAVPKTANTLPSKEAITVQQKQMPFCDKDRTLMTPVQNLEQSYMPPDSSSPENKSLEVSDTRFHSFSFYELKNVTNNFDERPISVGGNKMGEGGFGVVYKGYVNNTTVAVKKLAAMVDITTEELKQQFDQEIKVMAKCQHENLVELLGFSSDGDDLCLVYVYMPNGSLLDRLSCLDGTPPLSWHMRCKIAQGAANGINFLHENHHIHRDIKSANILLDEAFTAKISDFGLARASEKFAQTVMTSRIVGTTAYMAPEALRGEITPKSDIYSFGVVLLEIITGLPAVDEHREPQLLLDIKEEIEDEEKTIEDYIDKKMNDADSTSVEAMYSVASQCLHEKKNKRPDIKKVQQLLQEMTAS
Summary of the method: as §1

LOK = LOK (Homo sapiens (Human), UniProt O94804)
Summary of the method: as §1

MKK4_m = MKK4_m (Mus musculus (Mouse), UniProt P47809)
Summary of the method: as §1

MSK2 = MSK2 (Homo sapiens (Human), UniProt O75676)
Summary of the method: as §1

MYLK = MYLK (Homo sapiens (Human), UniProt Q15746)
Sequence of MYLK (Q15746 whole entry): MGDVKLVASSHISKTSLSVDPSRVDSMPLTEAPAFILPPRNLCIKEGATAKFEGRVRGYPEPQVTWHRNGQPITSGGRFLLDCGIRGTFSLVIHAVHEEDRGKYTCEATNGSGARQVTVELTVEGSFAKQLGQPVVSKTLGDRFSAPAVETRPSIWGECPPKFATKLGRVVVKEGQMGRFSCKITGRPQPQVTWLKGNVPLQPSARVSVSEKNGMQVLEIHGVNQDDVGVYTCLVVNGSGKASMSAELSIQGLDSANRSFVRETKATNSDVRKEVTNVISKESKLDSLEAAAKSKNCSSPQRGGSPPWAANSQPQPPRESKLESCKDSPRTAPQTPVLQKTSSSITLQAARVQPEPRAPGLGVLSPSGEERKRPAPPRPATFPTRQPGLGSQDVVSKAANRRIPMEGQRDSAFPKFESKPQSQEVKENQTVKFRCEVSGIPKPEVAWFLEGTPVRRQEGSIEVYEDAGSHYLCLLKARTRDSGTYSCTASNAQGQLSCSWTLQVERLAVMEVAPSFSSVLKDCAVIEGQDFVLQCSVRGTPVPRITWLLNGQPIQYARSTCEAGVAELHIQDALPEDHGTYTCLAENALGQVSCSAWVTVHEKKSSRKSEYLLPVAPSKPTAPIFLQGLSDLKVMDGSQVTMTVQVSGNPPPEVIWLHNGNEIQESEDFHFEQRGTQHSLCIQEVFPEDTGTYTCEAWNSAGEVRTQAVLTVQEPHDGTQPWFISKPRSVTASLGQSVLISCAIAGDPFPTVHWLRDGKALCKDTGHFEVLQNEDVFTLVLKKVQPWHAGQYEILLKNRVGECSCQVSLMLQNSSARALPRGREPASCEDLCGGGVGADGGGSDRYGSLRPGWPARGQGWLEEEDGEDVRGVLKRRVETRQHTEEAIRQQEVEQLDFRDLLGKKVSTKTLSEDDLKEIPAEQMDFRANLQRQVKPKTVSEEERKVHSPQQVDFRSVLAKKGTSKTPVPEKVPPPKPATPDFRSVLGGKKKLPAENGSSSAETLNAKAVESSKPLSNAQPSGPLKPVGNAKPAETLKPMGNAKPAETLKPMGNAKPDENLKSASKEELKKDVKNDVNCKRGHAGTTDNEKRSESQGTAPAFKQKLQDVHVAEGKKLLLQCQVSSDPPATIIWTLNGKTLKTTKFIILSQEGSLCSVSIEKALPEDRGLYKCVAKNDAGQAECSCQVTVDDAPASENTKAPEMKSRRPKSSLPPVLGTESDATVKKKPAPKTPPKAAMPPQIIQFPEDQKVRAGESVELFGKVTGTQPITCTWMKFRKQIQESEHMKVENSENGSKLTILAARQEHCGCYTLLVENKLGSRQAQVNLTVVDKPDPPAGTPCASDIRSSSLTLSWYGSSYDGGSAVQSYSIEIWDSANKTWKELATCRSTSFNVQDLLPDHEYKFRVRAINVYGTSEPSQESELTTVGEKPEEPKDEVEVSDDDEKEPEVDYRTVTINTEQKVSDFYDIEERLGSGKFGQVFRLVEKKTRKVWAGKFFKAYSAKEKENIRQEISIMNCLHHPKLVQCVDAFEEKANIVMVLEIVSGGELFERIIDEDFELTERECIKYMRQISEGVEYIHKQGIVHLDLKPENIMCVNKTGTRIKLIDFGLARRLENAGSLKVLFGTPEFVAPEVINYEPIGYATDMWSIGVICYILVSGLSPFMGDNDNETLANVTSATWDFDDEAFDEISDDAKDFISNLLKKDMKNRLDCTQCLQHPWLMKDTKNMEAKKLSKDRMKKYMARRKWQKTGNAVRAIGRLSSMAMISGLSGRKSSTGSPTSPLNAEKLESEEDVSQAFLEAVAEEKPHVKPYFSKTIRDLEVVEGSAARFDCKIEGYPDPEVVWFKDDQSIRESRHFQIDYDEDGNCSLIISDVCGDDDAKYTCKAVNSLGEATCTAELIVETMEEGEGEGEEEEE
Summary of the method: as §1

NEK6 = NEK6 (Homo sapiens (Human), UniProt Q9HC98)
Summary of the method: as §1

PKCeta = PKCeta (Homo sapiens (Human), UniProt P24723)
Sequence of PKCeta (P24723 whole entry): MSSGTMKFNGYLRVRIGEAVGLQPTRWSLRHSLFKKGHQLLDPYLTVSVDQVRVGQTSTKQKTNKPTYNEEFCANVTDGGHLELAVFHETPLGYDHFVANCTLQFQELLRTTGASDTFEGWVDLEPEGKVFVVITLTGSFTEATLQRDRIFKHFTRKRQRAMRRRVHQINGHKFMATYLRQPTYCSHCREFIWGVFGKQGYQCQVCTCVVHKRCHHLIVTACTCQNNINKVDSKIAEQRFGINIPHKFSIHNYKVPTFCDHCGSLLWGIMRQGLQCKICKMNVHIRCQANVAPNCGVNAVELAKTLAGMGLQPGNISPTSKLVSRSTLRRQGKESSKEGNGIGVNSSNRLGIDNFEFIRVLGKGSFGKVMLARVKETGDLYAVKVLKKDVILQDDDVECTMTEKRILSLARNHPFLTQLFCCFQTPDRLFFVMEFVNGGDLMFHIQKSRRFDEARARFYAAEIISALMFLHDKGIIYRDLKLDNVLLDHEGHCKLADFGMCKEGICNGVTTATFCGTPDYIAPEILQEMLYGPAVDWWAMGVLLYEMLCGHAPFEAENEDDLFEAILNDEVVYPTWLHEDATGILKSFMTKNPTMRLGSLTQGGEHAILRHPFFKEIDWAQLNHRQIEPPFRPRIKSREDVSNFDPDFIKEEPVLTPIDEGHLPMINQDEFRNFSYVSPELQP
Summary of the method: as §1

PKCiota = PKCiota (Homo sapiens (Human), UniProt P41743)
Sequence of PKCiota (P41743 whole entry): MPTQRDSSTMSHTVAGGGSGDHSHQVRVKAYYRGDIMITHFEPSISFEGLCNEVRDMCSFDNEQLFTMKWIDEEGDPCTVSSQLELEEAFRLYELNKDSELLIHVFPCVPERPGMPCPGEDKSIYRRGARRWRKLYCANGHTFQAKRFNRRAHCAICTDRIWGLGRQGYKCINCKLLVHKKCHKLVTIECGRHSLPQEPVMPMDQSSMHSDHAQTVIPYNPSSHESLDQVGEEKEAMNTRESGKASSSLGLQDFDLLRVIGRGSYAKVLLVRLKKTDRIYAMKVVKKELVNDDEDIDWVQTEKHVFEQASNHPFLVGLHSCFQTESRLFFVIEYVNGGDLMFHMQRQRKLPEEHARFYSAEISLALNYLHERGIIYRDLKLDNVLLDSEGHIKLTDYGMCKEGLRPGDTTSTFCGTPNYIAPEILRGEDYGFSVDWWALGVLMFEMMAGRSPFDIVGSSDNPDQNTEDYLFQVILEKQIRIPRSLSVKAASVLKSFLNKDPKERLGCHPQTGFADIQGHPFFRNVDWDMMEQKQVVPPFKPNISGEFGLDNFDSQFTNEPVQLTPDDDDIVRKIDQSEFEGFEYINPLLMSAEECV
Summary of the method: as §1

PRK2 = PRK2 (Homo sapiens (Human), UniProt Q16513)
Summary of the method: as §1

Pim-1 = Pim-1 (Homo sapiens (Human), UniProt P11309)
Summary of the method: as §1

ROCK-I = ROCK-I (Homo sapiens (Human), UniProt Q13464)
Summary of the method: as §1

Rsk4 = Rsk4 (Homo sapiens (Human), UniProt Q9UK32)
Summary of the method: as §1

SIK = SIK (Homo sapiens (Human), UniProt P57059)
Summary of the method: as §1

TAK1 = TAK1 (Homo sapiens (Human), UniProt O43318)
Summary of the method: as §1

TLK2 = TLK2 (Homo sapiens (Human), UniProt Q86UE8)
Summary of the method: as §1

TrkB = TrkB (Homo sapiens (Human), UniProt Q16620)
Summary of the method: as §1

ULK2 = ULK2 (Homo sapiens (Human), UniProt Q8IYT8)
Summary of the method: as §1

p38alpha = p38alpha (Homo sapiens (Human), UniProt Q16539)
Summary of the method: as §1

p38delta = p38delta (Homo sapiens (Human), UniProt O15264)
Summary of the method: as §1

| Structure (SMILES) | Avg POC (AKT1) [POC] | Avg POC (AMPK(A1/B1/G1)) [POC] | Avg POC (Abl2) [POC] | Avg POC (Axl) [POC] | Avg POC (CAMK1) [POC] | Avg POC (CDK3/cyclinE) [POC] | Avg POC (CHK2) [POC] | Avg POC (CK1gamma2) [POC] | Avg POC (DAPK2) [POC] | Avg POC (DAPK3) [POC] | Avg POC (EGFR) [POC] | Avg POC (ERK2) [POC] | Avg POC (EphA2) [POC] | Avg POC (EphA8) [POC] | Avg POC (EphB1) [POC] | Avg POC (EphB4) [POC] | Avg POC (Flt4) [POC] | Avg POC (Fms) [POC] | Avg POC (GRK7) [POC] | Avg POC (IR) [POC] | further results |
| --- | --- | --- | --- | --- | --- | --- | --- | --- | --- | --- | --- | --- | --- | --- | --- | --- | --- | --- | --- | --- | --- |
| COCCN1C[C@@H](NC(=O)Nc2c(C)c(-c3cnc(C)nc3)nn2-c2ccccc2)[C@H](c2cc(F)cc(F)c2)C1 [Example 14, 1-((3S,4R)-4-(3,5-difluorophenyl)-1-(2-methoxyethyl)pyrrolidin-3-yl)-3-(4-methyl-3-(2-methylpyrimidin-5-yl)-1-phenyl-1H-pyrazol-5-yl)urea] | 98.5 | 106.5 | 95.5 | 103 | 103.5 | 100.5 | 97.5 | 53 | 107 | 105.5 | 96.5 | 92.5 | 96 | 104.5 | 97.5 | 96 | 92.5 | 76 | 97 | 84 | Avg POC (IR Activated): 100.5 POC; Avg POC (IRAK4): 110.5 POC; Avg POC (LOK): 105 POC; Avg POC (MKK4_m): 116.5 POC; Avg POC (MSK2): 116 POC; Avg POC (MYLK): 101.5 POC; Avg POC (NEK6): 102 POC; Avg POC (PKCeta): 100 POC; Avg POC (PKCiota): 104.5 POC; Avg POC (PRK2): 106.5 POC; Avg POC (Pim-1): 103.5 POC; Avg POC (ROCK-I): 109.5 POC; Avg POC (Rsk4): 113.5 POC; Avg POC (SIK): 96 POC; Avg POC (TAK1): 88 POC; Avg POC (TLK2): 93.5 POC; Avg POC (TrkB): 4.5 POC; Avg POC (ULK2): 106.5 POC; Avg POC (p38alpha): 101 POC; Avg POC (p38delta): 102.5 POC |
| COCCN1C[C@@H](NC(=O)Nc2c(C)c(-c3ccnc(C)c3)nn2-c2ccccc2)[C@H](c2ccc(F)c(F)c2)C1 [Example 2, 1-((3S,4R)-4-(3,4-difluorophenyl)-1-(2-methoxyethyl)pyrrolidin-3-yl)-3-(4-methyl-3-(2-methylpyridin-4-yl)-1-phenyl-1H-pyrazol-5-yl)urea] | 109.5 | 118 | 101 | 117 | 107 | 98 | 101 | 73.5 | 109 | 107 | 105.5 | 106.5 | 110.5 | 104.5 | 93.5 | 104 | 95 | 101.5 | 104 | 74.5 | Avg POC (IR Activated): 106.5 POC; Avg POC (IRAK4): 132 POC; Avg POC (LOK): 109 POC; Avg POC (MKK4_m): 115 POC; Avg POC (MSK2): 120 POC; Avg POC (MYLK): 86.5 POC; Avg POC (NEK6): 105.5 POC; Avg POC (PKCeta): 108.5 POC; Avg POC (PKCiota): 95 POC; Avg POC (PRK2): 105 POC; Avg POC (Pim-1): 99.5 POC; Avg POC (ROCK-I): 98 POC; Avg POC (Rsk4): 136.5 POC; Avg POC (SIK): 106.5 POC; Avg POC (TAK1): 93 POC; Avg POC (TLK2): 92.5 POC; Avg POC (TrkB): 1.5 POC; Avg POC (ULK2): 96.5 POC; Avg POC (p38alpha): 112 POC; Avg POC (p38delta): 107.5 POC |
